According to patent publication US10710994B2, “Oxadiazole transient receptor potential channel inhibitors” (Genentech, Inc., priority 2018, dated 2020):
Where a name gives a salt, the structure may show the parent alone. Read-outs that look alike come from different tables or passages of the source.

Target: human TRPA1 channel (Homo sapiens (Human), UniProt O75762)
Test: hTRPA1 CHO Ca2+ FLIPR Tetra assay: block of cinnamaldehyde induced calcium influx
Type: cell-based
Details: CHO cells expressing TRPA1, Hill coefficient fixed to 1.5
Experimental: CHO cells expressing TRPA1 were plated into 384-well plates, incubated overnight at 37° C., and loaded with BD calcium indicator dye for 1 hr at 37° C. followed by 15 minutes at room temperature. The assay buffer was Hank's Balanced Salt Solution (HBSS) containing 20 mM HEPES (pH readjusted to 7.4) along with 0.02% BSA.
Following dye load and plate cool down, compounds were added to the cells using FLIPR Tetra. Plates were then incubated with compounds for 10 minutes or 90 minutes at room temperature prior to adding agonist. Following this incubation, about an EC80 concentration of cinnamaldehyde […] was added to active the channels and block of cinnamaldehyde induced calcium influx was measured.
Fixing the Hill coefficient will generally reduce variability of the IC50 determination. The IC50 results were individually examined to make sure the MIN and MAX points were set correctly prior to validation of the results.

[1] = hTRPA1 IC50 10 min, 10 minutes incubation with compound before cinnamaldehyde (about EC80)
[2] = hTRPA1 IC50 90 min, 90 minutes incubation with compound before cinnamaldehyde (about EC80)
[3] = read-out: hTRPA1 IC50 10 min, 10 minutes incubation with compound before cinnamaldehyde (about EC80)
[4] = read-out: hTRPA1 IC50 90 min, 90 minutes incubation with compound before cinnamaldehyde (about EC80)

Sequence of human TRPA1 channel (O75762 whole entry): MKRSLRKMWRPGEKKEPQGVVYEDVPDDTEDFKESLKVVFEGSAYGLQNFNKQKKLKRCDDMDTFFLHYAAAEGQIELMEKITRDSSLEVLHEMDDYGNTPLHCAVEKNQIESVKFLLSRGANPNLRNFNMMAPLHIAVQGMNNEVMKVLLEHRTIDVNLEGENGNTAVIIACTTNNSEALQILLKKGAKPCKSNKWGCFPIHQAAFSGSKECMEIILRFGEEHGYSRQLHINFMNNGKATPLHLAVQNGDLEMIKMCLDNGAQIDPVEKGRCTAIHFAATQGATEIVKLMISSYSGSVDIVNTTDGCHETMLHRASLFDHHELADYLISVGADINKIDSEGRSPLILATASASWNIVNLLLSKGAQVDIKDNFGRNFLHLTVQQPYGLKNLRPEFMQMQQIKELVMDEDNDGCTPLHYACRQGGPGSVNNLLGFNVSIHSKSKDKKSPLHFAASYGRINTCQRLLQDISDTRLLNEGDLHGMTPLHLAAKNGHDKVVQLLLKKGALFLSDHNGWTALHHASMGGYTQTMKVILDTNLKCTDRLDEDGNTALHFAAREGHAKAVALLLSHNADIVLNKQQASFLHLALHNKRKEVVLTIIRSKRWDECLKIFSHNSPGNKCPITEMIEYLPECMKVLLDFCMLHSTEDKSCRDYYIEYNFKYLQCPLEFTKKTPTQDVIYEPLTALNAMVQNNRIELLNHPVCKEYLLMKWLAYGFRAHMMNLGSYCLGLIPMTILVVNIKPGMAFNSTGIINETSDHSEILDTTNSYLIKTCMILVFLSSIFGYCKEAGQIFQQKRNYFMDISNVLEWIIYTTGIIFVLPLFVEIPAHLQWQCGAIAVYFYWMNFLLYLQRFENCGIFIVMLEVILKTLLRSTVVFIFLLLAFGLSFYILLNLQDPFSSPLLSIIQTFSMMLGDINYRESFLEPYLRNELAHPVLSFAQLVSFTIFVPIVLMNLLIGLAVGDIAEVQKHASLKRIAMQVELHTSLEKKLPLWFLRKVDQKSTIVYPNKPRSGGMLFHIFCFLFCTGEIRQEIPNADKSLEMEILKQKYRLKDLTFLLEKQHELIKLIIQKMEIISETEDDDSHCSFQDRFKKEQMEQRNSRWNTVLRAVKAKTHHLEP

| SMILES | IC50 [1] [nM] | IC50 [2] [nM] | IC50 [3] [nM] | IC50 [4] [nM] |
| --- | --- | --- | --- | --- |
| O=c1c2cccc(=O)n2ccn1Cc1nc([C@@H]2CO[C@@H](c3ccc(Cl)cc3)C2)no1 (racemic) [Example 98, 2-[[3-[rac-(3R,5R)-5-(4-chlorophenyl)tetrahydro-furan-3-yl]-1,2,4-oxadiazol-5-yl]methyl] pyrido[1,2-a]pyrazine-1,6-dione] | 6.4 | 4 |  |  |
| Cn1cnc2ncn(Cc3nc([C@@H]4CO[C@@H](c5ccc(Cl)cc5)C4)no3)c(=S)c21 [Example 59, 1-((3-((3R,5R)-5-(4-chlorophenyl)tetrahydro-furan-3-yl)-1,2,4-oxadiazol-5-yl)methyl)-7-methyl-1,7-dihydro-6H-purine-6-thione] |  |  | 4.16 | 3 |
| Cn1cnc2c(C#N)nn(Cc3nc([C@@H]4CO[C@@H](c5ccc(Cl)cc5)C4)no3)c(=O)c21 [Example 131, 6-((3-((3R,5R)-5-(4-chlorophenyl)tetrahydro-furan-3-yl)-1,2,4-oxadiazol-5-yl)methyl)-1-methyl-7-oxo-6,7-dihydro-1H-imidazo[4,5-d]pyridazine-4-carbonitrile] |  |  | 7.42 | 3.1 |
| Cc1ncn2ncn(Cc3nc([C@@H]4CO[C@@H](c5ccc(F)cc5)C4)no3)c(=O)c12 [Example 75, 3-((3-((3R,5R)-5-(4-fluorophenyl)tetrahydro-furan-3-yl)-1,2,4-oxadiazol-5-yl)methyl)-5-methylimidazo[5,1-f][1,2,4]triazin-4(3H)-one] |  |  |  | 25 |
| Cn1cnc2nc(N)n(Cc3nc([C@@H]4CO[C@@H](c5ccc(Cl)cc5)C4)no3)c2c1=O [Example 123, 8-amino-7-((3-((3R,5R)-5-(4-chlorophenyl)tetrahydro-furan-3-yl)-1,2,4-oxadiazol-5-yl)methyl)-1-methyl-1,7-dihydro-6H-purin-6-one] |  |  | 126 | 17 |
| Cn1cnc2ncn(Cc3nc([C@@H]4CO[C@@H](c5cccc(Cl)c5)C4)no3)c(=O)c21 [Example 17, 1-((3-((3R,5R)-5-(3-chlorophenyl)tetrahydro-furan-3-yl)-1,2,4-oxadiazol-5-yl)methyl)-7-methyl-1,7-dihydro-6H-purin-6-one] |  |  | 29.5 | 14 |
| O=c1c2cccnc2cnn1Cc1nc([C@@H]2CO[C@@H](c3ccc(F)cc3)C2)no1 [Example 11, 6-((3-((3R,5R)-5-(4-fluorophenyl)tetra-hydrofuran-3-yl)-1,2,4-oxadiazol-5-yl)methyl)pyrido[2,3-d]pyridazin-5(6H)-one] |  |  | 16.6 | 13 |
| Cn1c(C(F)F)nc2ncn(Cc3nc([C@@H]4CO[C@@H](c5ccc(Cl)cc5)C4)no3)c(=O)c21 [Example 76, 1-((3-((3R,5R)-5-(4-chlorophenyl)tetrahydro-furan-3-yl)-1,2,4-oxadiazol-5-yl)methyl)-8-(difluoro-methyl)-7-methyl-1,7-dihydro-6H-purin-6-one] |  |  |  | 11 |
| Cc1cnn2nc(N)n(Cc3nc([C@@H]4CO[C@@H](c5cccc(F)c5)C4)no3)c(=O)c12 [Example 127, 2-amino-3-((3-((3R,5R)-5-(3-fluorophenyl)tetrahydro-3-yl)-1,2,4-oxadiazol-5-yl)methyl)-5-methylpyrazolo[5,1-f] [1,2,4]triazin-4(3H)-one] |  |  | 17.9 | 2.9 |
| Nc1nc2ncn(Cc3nc([C@@H]4CO[C@@H](c5ccc(F)cc5)C4)no3)c(=O)c2s1 [Example 126, 2-amino-6-((3-((3R,5R)-5-(4-fluorophenyl)tetrahydrofuran-3-yl)-1,2,4-oxadiazol-5-yl)methyl) thiazolo[4,5-d]pyrimidin-7(6H)-one] |  |  | 89.9 | 36 |
| Cc1cnn2ncn(Cc3nc([C@@H]4CO[C@@H](c5ccc6cn[nH]c6c5)C4)no3)c(=O)c12 [Example 139, 3-((3-((3R,5R)-5-(1H-indazol-6-yl)tetrahydrofuran-3-yl)-1,2,4-oxadiazol-5-yl)methyl)-5-methylpyrazolo[5,1-f] [1,2,4]triazin-4(3H)-one] |  |  | 19.5 | 7.5 |
| Nc1nn2ncc(Cl)c2c(=O)n1Cc1nc([C@@H]2CO[C@@H](c3ccc(F)cc3)C2)no1 [Example 143, 2-amino-5-chloro-3-((3-((3R,5R)-5-(4-fluorophenyl)tetrahydro-furan-3-yl)-1,2,4-oxadiazol-5-yl)methyl)pyrazolo[5,1-f][1,2,4]triazin-4(3H)-one] |  |  | 56.9 | 6.6 |
| Nc1nc2ncccc2c(=O)n1Cc1nc([C@@H]2CO[C@@H](c3cccc(F)c3)C2)no1 [Example 119, 2-amino-3-((3-((3R,5R)-5-(3-fluorophenyl)tetrahydro-furan-3-yl)-1,2,4-oxadiazol-5-yl)methyl) pyrido[2,3-d]pyrimidin-4(3H)-one] |  |  | 31.9 | 13 |
| Cn1c(N)nc2ncn(Cc3nc([C@@H]4CO[C@@H](c5ccc(Cl)cc5)C4)no3)c(=O)c21 [Example 26, 8-amino-1-((3-((3R,5R)-5-(4-chlorophenyl)tetrahydro-furan-3-yl)-1,2,4-oxadiazol-5-yl)methyl)-7-methyl-1,7-dihydro-6H-purin-6-one] |  |  | 58.7 | 9.7 |
| Cc1cnn2ncn(Cc3nc([C@@H]4CO[C@@H](c5ccc(Cl)cn5)C4)no3)c(=O)c12 [Example 148, 3-((3-((3R,5R)-5-(5-chloropyridin-2-yl)tetrahydrofuran-3-yl)-1,2,4-oxadiazol-5-yl)methyl)-5-methylpyrazolo[5,1-f] [1,2,4]triazin-4(3H)-one] |  |  | 21.3 | 14 |
| Cn1cnc2ncn(Cc3nc([C@@H]4CO[C@@H](c5ccc(C#N)cc5)C4)no3)c(=O)c21 [Example 37, 4-((2R,4R)-4-(5-((7-methyl-6-oxo-6,7-dihydro-1H-purin-1-yl)methyl)-1,2,4-oxadiazol-3-yl)tetrahydrofuran-2-yl)benzonitrile] |  |  | 108 | 52 |
| Cc1ccnc2ncn(Cc3nc([C@@H]4CO[C@@H](c5ccc(Cl)cc5)C4)no3)c(=O)c12 [Example 58, 3-((3-((3R,5R)-5-(4-chlorophenyl)tetrahydro-furan-3-yl)-1,2,4-oxadiazol-5-yl)methyl)-5-methylpyrido[2,3-d] pyrimidin-4(3H)-one] |  |  | 69 | 52 |
| Cn1cnc2nc(N)n(Cc3nc([C@@H]4CO[C@@H](c5ccc(C(F)(F)F)cc5)C4)no3)c(=O)c21 [Example 136, 2-amino-7-methyl-1-((3-((3R,5R)-5-(4-(trifluoromethyl)phenyl)tetrahydrofuran-3-yl)-1,2,4-oxadiazol-5-yl)methyl)-1,7-dihydro-6H-purin-6-one] |  |  | 97.3 | 11 |
| Cc1nc(NC2CCN(C)CC2)n2ncn(Cc3nc([C@@H]4CO[C@@H](c5ccc(Cl)cc5)C4)no3)c(=O)c12 [Example 78, 3-((3-((3R,5R)-5-(4-chlorophenyl)tetrahydro-furan-3-yl)-1,2,4-oxadiazol-5-yl)methyl)-5-methyl-7-((1-methylpiperidin-4-yl)amino)imidazo[5,1-f] [1,2,4]triazin-4(3H)-one] |  |  |  | 150 |
| O=c1c2c(cnn1Cc1nc([C@@H]3CO[C@@H](c4ccc(Cl)cc4)C3)no1)CNCC2 [Example 146, 2-((3-((3R,5R)-5-(4-chlorophenyl)tetrahydro-furan-3-yl)-1,2,4-oxadiazol-5-yl)methyl)-5,6,7,8-tetrahydropyrido[3,4-d] pyridazin-1(2H)-one hydrochloride] |  |  | 2600 | 97 |
| Cn1cnc2nc(N)n(Cc3nc([C@@H]4CO[C@@H](c5ccc(F)cc5)C4)no3)c2c1=O (racemic) [Example 157, 8-amino-1-methyl-7-[[3-[rac-(3R,5R)-5-(4-fluorophenyl)tetrahydro-furan-3-yl]-1,2,4-oxadiazol-5-yl]methyl]purin-6-one] | 470 | 87 |  |  |
| Cc1nc2nc(N)n(Cc3nc([C@@H]4CO[C@@H](c5ccc(Cl)cc5)C4)no3)c(=O)c2n1C (racemic) [Example 152, 2-amino-7,8-dimethyl-1-[[3-[rac-(3R,5R)-5-(4-chlorophenyl)tetrahydro-furan-3-yl]-1,2,4-oxadiazol-5-yl]methyl]purin-6-one] | 43.1 | 6.2 |  |  |
| Cn1cnc2ncn(Cc3nc([C@@H]4CO[C@@H](c5ccc(Cl)c(F)c5)C4)no3)c(=O)c21 [Example 32, 1-((3-((3R,5R)-5-(4-chloro-3-fluorophenyl)tetrahydro-furan-3-yl)-1,2,4-oxadiazol-5-yl)methyl)-7-methyl-1,7-dihydro-6H-purin-6-one] |  |  | 7.88 | 2 |
| [2H]c1nc2nc(C)n(Cc3nc([C@@H]4CO[C@@H](c5ccc(Cl)cc5)C4)no3)c(=O)c2n1C [Example 110, 1-((3-((3R,5R)-5-(4-chlorophenyl)tetrahydro-furan-3-yl)-1,2,4-oxadiazol-5-yl)methyl)-2,7-dimethyl-1,7-dihydro-6H-purin-6-one-8-d] | 9.32 | 3.9 |  |  |
